# Where “and” joins values, the source holds several entries; their conditions need not be identical. Equal values may be shown once.
# Columns and labels:
# Staphylococcus aureus [1] = experiment: Antimicrobial activity against Methicillin-resistant Staphylococcus aureus assessed as bacterial growth inhibition by microtiter dilution plate method; type: functional
# Staphylococcus aureus [2] = experiment: Antimicrobial activity against Methicillin-resistant Staphylococcus aureus assessed as bacterial growth inhibition by agar well diffusion method; type: functional
# Staphylococcus aureus [3] = experiment: Antimicrobial activity against Methicillin-resistant Staphylococcus aureus ATCC 33592 assessed as bacterial growth inhibition incubated for 20 to 24 hrs by microdilution assay; type: functional; settings: time 20-24 hrs
# Staphylococcus aureus [4] = experiment: Antimicrobial activity against Methicillin-resistant Staphylococcus aureus ATCC 33592 assessed as bacterial growth inhibition incubated for 20 to 24 hrs by microdilution method; type: functional; settings: time 20-24 hrs
# Staphylococcus aureus [5] = experiment: Antimicrobial activity against Methicillin sensitive Staphylococcus aureus assessed as bacterial growth inhibition incubated for 18 hrs; type: functional
# Staphylococcus aureus [6] = experiment: Antimicrobial activity against Staphylococcus aureus 209 assessed as bacterial growth inhibition; type: functional
# Staphylococcus aureus [7] = experiment: Antimicrobial activity against Methicillin-resistant Staphylococcus aureus CCARM 3506 assessed as bacterial growth inhibition incubated for 24 hrs by ELISA assay; type: functional
# Staphylococcus aureus [8] = experiment: Antimicrobial activity against Methicillin-resistant Staphylococcus aureus assessed as bacterial growth inhibition incubated for 24 hrs; type: functional
# Staphylococcus aureus [9] = experiment: Antimicrobial activity against Methicillin-resistant Staphylococcus aureus ATCC 700699 assessed as bacterial growth inhibition incubated for 20 to 24 hrs by microdilution method; type: functional; settings: time 20-24 hrs
# Staphylococcus aureus [10] = experiment: Antimicrobial activity against Methicillin-resistant Staphylococcus aureus assessed as bacterial growth inhibition by disc diffusion method; type: functional
# Staphylococcus aureus [11] = experiment: Antimicrobial activity against Methicillin-sensitive Staphylococcus aureus ATCC 25923 assessed as bacterial growth inhibition; type: functional
# Staphylococcus aureus [12] = experiment: Antimicrobial activity against Methicillin-resistant Staphylococcus aureus BAA-2312 assessed as bacterial growth inhibition; type: functional
# Staphylococcus aureus [13] = experiment: Antimicrobial activity against Methicillin-resistant Staphylococcus aureus ATCC 700699 assessed as bacterial growth inhibition; type: functional
# Staphylococcus aureus [14] = experiment: Antimicrobial activity against Methicillin-resistant Staphylococcus aureus ATCC 33591 assessed as bacterial growth inhibition; type: functional
# Staphylococcus aureus [15] = experiment: Antimicrobial activity against Methicillin-resistant Staphylococcus aureus ATCC 33592 assessed as bacterial growth inhibition; type: functional
# Escherichia coli = experiment: Antimicrobial activity against Escherichia coli ATCC 8739 assessed as bacterial growth inhibition incubated for 18 hrs by microdilution method; type: functional
# [16] = tested on: Salmonella enterica subsp. enterica; experiment: Antimicrobial activity against Salmonella typhimurium […] assessed as bacterial growth inhibition incubated for 18 hrs by microdilution method; type: functional
# Klebsiella pneumoniae = experiment: Antimicrobial activity against Klebsiella pneumoniae ATCC 314588 assessed as bacterial growth inhibition incubated for 18 hrs by microdilution method; type: functional
# Pseudomonas aeruginosa = experiment: Antimicrobial activity against Pseudomonas aeruginosa ATCC 27853 assessed as bacterial growth inhibition incubated for 18 hrs by microdilution method; type: functional
# Staphylococcus aureus [17] = experiment: Antimicrobial activity against Methicillin-resistant Staphylococcus aureus ATCC BAA 1683 assessed as bacterial growth inhibition incubated for 18 hrs by microdilution method; type: functional
# Staphylococcus aureus [18] = experiment: Antimicrobial activity against Methicillin-resistant Staphylococcus aureus BFSA25 assessed as bacterial growth inhibition by microdilution method; type: functional; settings: BFA25
# Staphylococcus aureus [19] = experiment: Antimicrobial activity against Methicillin-resistant Staphylococcus aureus BFSA30 assessed as bacterial growth inhibition by microdilution method; type: functional; settings: BFA30
# Staphylococcus aureus [20] = experiment: Antimicrobial activity against Methicillin-resistant Staphylococcus aureus BFSA31 assessed as bacterial growth inhibition by microdilution method; type: functional; settings: BFA31
# Staphylococcus aureus [21] = experiment: Antimicrobial activity against Methicillin-resistant Staphylococcus aureus BFSA32 assessed as bacterial growth inhibition by microdilution method; type: functional; settings: BFA32
# Staphylococcus aureus [22] = experiment: Antimicrobial activity against Methicillin-resistant Staphylococcus aureus BFSA33 assessed as bacterial growth inhibition by microdilution method; type: functional; settings: BFA33
# Staphylococcus aureus [23] = experiment: Antimicrobial activity against Methicillin-resistant Staphylococcus aureus BFSA48 assessed as bacterial growth inhibition by microdilution method; type: functional; settings: BFA48
# Staphylococcus aureus [24] = experiment: Antimicrobial activity against Methicillin-resistant Staphylococcus aureus ATCC 3167 assessed as bacterial growth inhibition; type: functional
# Staphylococcus aureus [25] = experiment: Antimicrobial activity against vancomycin intermediate-resistant Staphylococcus aureus assessed as bacterial growth inhibition incubated for 24 hrs by microdilution method; type: functional
# Staphylococcus aureus [26] = experiment: Antimicrobial activity against Methicillin-resistant Staphylococcus aureus MW2 assessed as bacterial growth inhibition incubated for 18 hrs by microdilution method; type: functional
# Staphylococcus aureus [27] = experiment: Antimicrobial activity against Methicillin-sensitive Staphylococcus aureus ATCC 33591 assessed as bacterial growth inhibition by microbroth serial dilution method; type: functional
# Staphylococcus aureus [28] = experiment: Antimicrobial activity against Methicillin-sensitive Staphylococcus aureus ATCC 43300 assessed as bacterial growth inhibition by microbroth serial dilution method; type: functional
# Staphylococcus aureus [29] = experiment: Antimicrobial activity against Methicillin-sensitive Staphylococcus aureus ATCC 33591 assessed as bacterial growth inhibition incubated for 24 hrs; type: functional
# Staphylococcus aureus [30] = experiment: Antimicrobial activity against Methicillin-sensitive Staphylococcus aureus ATCC 43300 assessed as bacterial growth inhibition incubated for 24 hrs; type: functional; settings: ATCC43300
# [31] = target: T1, Dihydrofolate reductase (Homo sapiens) (UniProt P00374); experiment: Inhibition of human DHFR using TMB as substrate incubated for 1.5 hrs by ELISA assay relative to control; settings: concentration not given here
# T1 sequence (whole entry): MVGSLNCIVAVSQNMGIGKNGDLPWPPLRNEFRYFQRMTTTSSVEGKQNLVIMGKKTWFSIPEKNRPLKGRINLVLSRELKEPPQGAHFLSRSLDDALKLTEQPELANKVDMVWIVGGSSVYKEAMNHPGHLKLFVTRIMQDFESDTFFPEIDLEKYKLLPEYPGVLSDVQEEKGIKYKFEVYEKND
# Staphylococcus aureus [32] = experiment: Antimicrobial activity against Methicillin-resistant Staphylococcus aureus ATCC 43300 assessed as bacterial growth inhibition; type: functional
# Staphylococcus aureus [33] = experiment: Antimicrobial activity against Methicillin-resistant Staphylococcus aureus ATCC 33591 assessed as bacterial growth inhibition incubated for 20 to 24 hrs by microdilution method; type: functional; settings: time 20-24 hrs
# Staphylococcus aureus [34] = experiment: Antimicrobial activity against Methicillin-resistant Staphylococcus aureus assessed as bacterial growth inhibition; type: functional
# Staphylococcus aureus [35] = experiment: Antimicrobial activity against Staphylococcus aureus LysRs assessed as bacterial growth inhibition by microdilution method; type: functional, organism-based
# Staphylococcus aureus [36] = experiment: Antimicrobial activity against Methicillin-resistant Staphylococcus aureus assessed as bacterial growth inhibition incubated for 24 hrs by microdilution method; type: functional
# Staphylococcus aureus [37] = experiment: Antimicrobial activity against Methicillin-resistant Staphylococcus aureus assessed as bacterial growth inhibition incubated for 24 hrs by agar disc diffusion method; type: functional
compound,measurement,setting,value
c1ccc(-c2cnn3c4c(cnc23)CCCCCC4)cc1,MIC,Staphylococcus aureus [1],9 µg/mL
same,inhibition zone (IZ),Staphylococcus aureus [2],50 mm
O=C(O)c1ccc(-n2cc(/C=N/N(c3ccccc3)c3ccccc3)c(-c3cc4ccccc4oc3=O)n2)cc1,MIC,Staphylococcus aureus [3],3.12 µg/mL
O=C(O)c1ccc(-n2cc(/C=N/Nc3cccc(Cl)c3F)c(-c3cccc(F)c3)n2)cc1,MIC,Staphylococcus aureus [4],0.78 µg/mL
CC(=O)c1c(N2Cc3nn(C)c(N)c3C2)c(F)cc2c(=O)c(C(=O)O)cn(C3CC3)c12,MIC,Staphylococcus aureus [5],0.125 µg/mL
COc1nnc2nn(C)cnc1-2,MIC,Staphylococcus aureus [6],50 µg/mL
COc1c(N2C[C@@H]3CCCN[C@@H]3C2)c(F)cc2c(=O)c(C(=O)O)cn(C3CC3)c12 [MOXIFLOXACIN],MIC,Staphylococcus aureus [7],1 µg/mL
same,MIC,Staphylococcus aureus [5],0.06 µg/mL
Cc1nn(-c2ccccc2)c(Cl)c1/C=C/c1ccc([N+](=O)[O-])cc1[N+](=O)[O-],MIC,Staphylococcus aureus [8],25 µg/mL
O=C(O)c1ccc(-n2cc(/C=N/Nc3ccc([N+](=O)[O-])cc3)c(-c3cccc(F)c3)n2)cc1,MIC,Staphylococcus aureus [9],0.78 µg/mL
COc1ccc(Nc2n[nH]c(/N=C\c3ccccc3)c2C(=O)Nc2ccc(C)cc2)cc1,MIC,Staphylococcus aureus [10],15.6 µg/mL
O=C(O)c1ccc(-n2cc(/C=N\N(c3ccccc3)c3ccccc3)c(-c3cc4cc(F)ccc4oc3=O)n2)cc1,MIC,Staphylococcus aureus [11],3.12 µg/mL
same,MIC,Staphylococcus aureus [12],3.12 µg/mL
same,MIC,Staphylococcus aureus [13],3.12 µg/mL
same,MIC,Staphylococcus aureus [14],3.12 µg/mL
same,MIC,Staphylococcus aureus [15],3.12 µg/mL
Fc1ccc(-c2nn(-c3ccccc3)cc2-c2nc3ccccn3c2Cc2ccccc2)cc1,MIC,Escherichia coli,< 1 µg/mL
same,MIC,[16],< 1 µg/mL
same,MIC,Klebsiella pneumoniae,< 1 µg/mL
same,MIC,Pseudomonas aeruginosa,< 1 µg/mL
same,MIC,Staphylococcus aureus [17],2.5 µg/mL
Cc1onc(-c2ccccc2)c1C(=O)N[C@@H]1C(=O)N2[C@@H]1SC(C)(C)[C@@H]2C(=O)O [OXACILLIN],MIC,Staphylococcus aureus [18],> 32 µg/mL
same,MIC,Staphylococcus aureus [19],> 32 µg/mL
same,MIC,Staphylococcus aureus [20],> 32 µg/mL
same,MIC,Staphylococcus aureus [21],> 32 µg/mL
same,MIC,Staphylococcus aureus [22],> 32 µg/mL
same,MIC,Staphylococcus aureus [23],> 32 µg/mL
same,MIC,Staphylococcus aureus [24],64 µM
CCCc1c(-c2ccc(O)cc2)nn(-c2ccc(O)cc2)c1-c1ccc(O)cc1 [PROPYLPYRAZOLETRIOL],MIC,Staphylococcus aureus [25],8 µg/mL
same,MIC,Staphylococcus aureus [26],8 µg/mL
CC(=O)c1nn(-c2ccc([N+](=O)[O-])cc2)cc1C(=O)c1cc2cc(CN3CCN(Cc4ccc5oc(C(=O)c6cn(-c7ccc([N+](=O)[O-])cc7)nc6C(C)=O)cc5c4)CC3)ccc2o1,MIC,Staphylococcus aureus [27],18.1 µM and 9 µM
same,MBC,Staphylococcus aureus [28],36.2 µM
same,MIC,Staphylococcus aureus [28],9 µM
same,MBC,Staphylococcus aureus [29],36.2 µM
same,MBC,Staphylococcus aureus [30],18.1 µM
Cc1nn(-c2ccc(Cl)cc2Cl)c(Oc2ccc(Cl)cc2Cl)c1C1N=C(N)NC(NCCc2ccccc2)=N1 (centres undefined),MIC,Staphylococcus aureus [7],0.5 µg/mL
same,inhibition,[31],43%
CC(C)(C)c1cc(NC(=O)c2cccc(F)c2)n(-c2ccc(Cl)cc2)n1,MIC,Staphylococcus aureus [32],3.12 µg/mL
O=C(O)c1ccc(-n2cc(/C=N/Nc3ccc(Cl)cc3Cl)c(-c3cccc(F)c3)n2)cc1,MIC,Staphylococcus aureus [33],0.39 µg/mL
O=C(O)c1cn(C2CC2)c2cc(N3CCNCC3)c(F)cc2c1=O [CIPROFLOXACIN],MBC,Staphylococcus aureus [34],625 µg/mL
same,MIC,Escherichia coli,> 1.8 µg/mL
same,MIC,[16],> 1.8 µg/mL
same,MIC,Klebsiella pneumoniae,> 1.8 µg/mL
same,MIC,Pseudomonas aeruginosa,> 1.8 µg/mL
same,MIC,Staphylococcus aureus [17],1.84 µg/mL
CCCSC(=S)c1c(C)nn(-c2ccccc2)c1O,MIC,Staphylococcus aureus [18],4 µg/mL
same,MIC,Staphylococcus aureus [19],4 µg/mL
same,MIC,Staphylococcus aureus [20],4 µg/mL
same,MIC,Staphylococcus aureus [21],4 µg/mL
same,MIC,Staphylococcus aureus [22],4 µg/mL
same,MIC,Staphylococcus aureus [23],4 µg/mL
COc1ccc(-n2nc(C(C)(C)C)cc2NC(=O)c2cccc(Cl)c2)cc1,MIC,Staphylococcus aureus [32],3.12 µg/mL
CCc1c2[nH]c(=O)[nH]c(=O)c2nn1CC1CCC1,IC50,Staphylococcus aureus [35],21.7 µM
COc1c(N2CCNC(C)C2)c(F)cc2c(=O)c(C(=O)O)cn(C3CC3)c12 (centres undefined) [GATIFLOXACIN],MIC,Staphylococcus aureus [5],0.06 µg/mL
COc1[nH]nc2nncnc12,MIC,Staphylococcus aureus [6],200 µg/mL
CC(=O)NC[C@H]1CN(c2ccc(N3CCOCC3)c(F)c2)C(=O)O1 [LINEZOLID],MIC,Staphylococcus aureus [27],2.6 µM
same,MIC,"Staphylococcus aureus [27]; Staphylococcus aureus, ATCC 33591, read-out: MIC",5.2 µM
same,MBC,Staphylococcus aureus [28],46.2 µM
same,MIC,Staphylococcus aureus [28],2.6 µM
same,MBC,Staphylococcus aureus [29],46.2 µM
same,MBC,Staphylococcus aureus [30],46.2 µM
CCOC(=O)c1nn(-c2ccccc2)cc1C(=O)c1ccc(S(=O)(=O)c2ccccc2)cc1,MIC,Staphylococcus aureus [36],25 µg/mL
same,inhibition zone (IZ),Staphylococcus aureus [37],14 mm
Cc1nn(-c2ccccc2)c(Cl)c1/C=C(\Br)C(=O)C1C(=O)N(C)C(=O)N(C)C1=O,MIC,Staphylococcus aureus [8],25 µg/mL
